Columns and labels:
[1] = test system: human airway epithelial cells (HAECs); experiment: High-throughput sequencing (HTS) of miRNAs at four stages of differentiation of HAECs; settings: for Modulation (ratio of the level of intensity of expression in log2 in two stages of differentiation) measured by high-throughput sequencing, D7 − D0 / Modulation (ratio of the level of intensity of expression in log2 in two stages of differentiation) measured by high-throughput sequencing, FC − D7 / Modulation (ratio of the level of intensity of expression in log2 in two stages of differentiation) measured by high-throughput sequencing, WD − D0 / Modulation (ratio of the level of intensity of expression in log2 in two stages of differentiation) measured by high-throughput sequencing, WD − FC / Level of intensity of expression in log2 measured by high-throughput sequencing, D0 / Level of intensity of expression in log2 measured by high-throughput sequencing, D7 / Level of intensity of expression in log2 measured by high-throughput sequencing, FC / Level of intensity of expression in log2 measured by high-throughput sequencing, WD: Table VI; for Level of intensity of expression in log2 At the differentiated stage (WD) measured in HTS: healthy human airway epithelial tissue; for Level of intensity of expression in log2 measured by high-throughput sequencing, D0: stage D0; for Level of intensity of expression in log2 measured by high-throughput sequencing, D7: stage D7; for Level of intensity of expression in log2 measured by high-throughput sequencing, FC: stage FC; for Level of intensity of expression in log2 At the differentiated stage (WD) measured in HTS / Level of intensity of expression in log2 measured by high-throughput sequencing, WD: stage WD
Outline: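 Total RNA (with small RNAs) from air-liquid-interface HAECs at ALI-D0, D7, first cilia (~14 d) and fully differentiated (~21 d); adaptor-ligated SOLiD small-RNA libraries, RT-PCR, gel-selected ~105-150 bases. Counts normalized to 10^6 sequences as % abundance; linear-model/empirical Bayes; kept >1% abundance, |Log2 Ratio| <0.5, adjusted P <0.05.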

[2] = test system: human airway epithelial cells (HAECs); experiment: Agilent miRNA chips, miRNA expression at four stages of differentiation of HAECs; settings: for Modulation (ratio of the level of intensity of expression in log2 in two stages of differentiation) measured with the Agilent chips, D7 − D0 / Modulation (ratio of the level of intensity of expression in log2 in two stages of differentiation) measured with the Agilent chips, FC − D7 / Modulation (ratio of the level of intensity of expression in log2 in two stages of differentiation) measured with the Agilent chips, WD − D0 / Modulation (ratio of the level of intensity of expression in log2 in two stages of differentiation) measured with the Agilent chips, WD − FC / Level of intensity of expression in log2 measured with the Agilent chips, D0 / Level of intensity of expression in log2 measured with the Agilent chips, D7 / Level of intensity of expression in log2 measured with the Agilent chips, FC / Level of intensity of expression in log2 measured with the Agilent chips, WD: Table VI; for Modulation (ratio of the level of intensity of expression in log2 at two stages of differentiation), FC − D7 / Modulation (ratio of the level of intensity of expression in log2 at two stages of differentiation), WD − FC: Agilent miRNA chips, Table V; for Level of intensity of expression in log2 measured with the Agilent chips, D0: stage D0; for Level of intensity of expression in log2 measured with the Agilent chips, D7: stage D7; for Level of intensity of expression in log2 measured with the Agilent chips, FC: stage FC; for Level of intensity of expression in log2 measured with the Agilent chips, WD: stage WD
Outline: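 Expression was profiled on Human miRNA Microarray v2 chips covering 866 human and 89 human viral miRNAs from miRBase v12.0. Labelled HAEC RNA came from the same patients used for sequencing and was hybridized per kit protocol. Chip and sequencing results were compared.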

[3] = test system: basal cells and pyramidal cells of the airway epithelium; experiment: miRNA expression in sorted basal cells versus pyramidal cells (ciliated + secretory), HTS and Agilent chips; set-up: species or system human; settings: for Modulation of expression of the miRNAs in pyramidal cells (323(−)) relative to basal cells 323(+): HTS and Agilent chips; for Intensity of the level of expression in log2 in pyramidal cells (323(−)): pyramidal cells (ciliated + secretory)
Outline: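 Nasal polyp or concha epithelial cells from 3 donors FACS-sorted into CD151+/tissue factor+ basal cells and CD151−/TF− pyramidal (ciliated plus mucus-secreting) cells, excluding dead (DAPI) cells and doublets. miRNA profiles from total RNA obtained by Agilent chips or high-throughput sequencing.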

Substance	Modulation (ratio of the level of intensity of expression in log2 in two stages of differentiation) measured by high-throughput sequencing, D7 − D0 [1] [log2]	Modulation (ratio of the level of intensity of expression in log2 in two stages of differentiation) measured by high-throughput sequencing, FC − D7 [1] [log2]	Modulation (ratio of the level of intensity of expression in log2 in two stages of differentiation) measured by high-throughput sequencing, WD − D0 [1] [log2]	Modulation (ratio of the level of intensity of expression in log2 in two stages of differentiation) measured by high-throughput sequencing, WD − FC [1] [log2]	Level of intensity of expression in log2 At the differentiated stage (WD) measured in HTS [1] [log2]	Level of intensity of expression in log2 measured by high-throughput sequencing, D0 [1] [log2]	Level of intensity of expression in log2 measured by high-throughput sequencing, D7 [1] [log2]	Level of intensity of expression in log2 measured by high-throughput sequencing, FC [1] [log2]	Level of intensity of expression in log2 measured by high-throughput sequencing, WD [1] [log2]	Modulation (ratio of the level of intensity of expression in log2 in two stages of differentiation) measured with the Agilent chips, D7 − D0 [2] [log2]	Modulation (ratio of the level of intensity of expression in log2 at two stages of differentiation), FC − D7 [2] [log2]	Modulation (ratio of the level of intensity of expression in log2 in two stages of differentiation) measured with the Agilent chips, FC − D7 [2] [log2]	Modulation (ratio of the level of intensity of expression in log2 in two stages of differentiation) measured with the Agilent chips, WD − D0 [2] [log2]	Modulation (ratio of the level of intensity of expression in log2 at two stages of differentiation), WD − FC [2] [log2]	Modulation (ratio of the level of intensity of expression in log2 in two stages of differentiation) measured with the Agilent chips, WD − FC [2] [log2]	Level of intensity of expression in log2 measured with the Agilent chips, D0 [2] [log2]	Level of intensity of expression in log2 measured with the Agilent chips, D7 [2] [log2]	Level of intensity of expression in log2 measured with the Agilent chips, FC [2] [log2]	Level of intensity of expression in log2 measured with the Agilent chips, WD [2] [log2]	Modulation of expression of the miRNAs in pyramidal cells (323(−)) relative to basal cells 323(+) [3]	further results
hsa-miR-200a: human miRNA, SEQ ID No. 16 (UAACACUGUCUGGUAACGAUGU; expressed or natural sequence; listed as Homo sapiens)	1.00	0.67	2.20	0.54	10.96	9.02	10.01	10.68	11.22	1.94	0.20	0.20	2.20	0.06	0.06	8.64	10.58	10.79	10.84	−0.95	Intensity of the level of expression in log2 in basal cells (323(+)) [3]: 8.80 log2; Intensity of the level of expression in log2 in pyramidal cells (323(−)) [3]: 7.85 log2
hsa-miR-200b: human miRNA, SEQ ID No. 17 (UAAUACUGCCUGGUAAUGAUGA; expressed or natural sequence; listed as Homo sapiens)	0.76	0.56	2.36	1.03	10.64	8.60	9.37	9.93	10.96	2.01	−0.07	−0.07	2.11	0.17	0.17	9.93	11.94	11.87	12.04	−0.15	Intensity of the level of expression in log2 in basal cells (323(+)) [3]: 9.99 log2; Intensity of the level of expression in log2 in pyramidal cells (323(−)) [3]: 9.84 log2
